Results published in publication PMC12226389, “Icariin interacts with IGFBP3 to alleviate diabetic cataract through PI3K/AKT signaling pathway” (iScience, 2025).

Biological target: T1, IGFBP3 (Homo sapiens, UniProt P17936)
T1 construct: protein immobilised on CM5 chip
Test: SPR (Biacore T200, CM5 chip, immobilised IGFBP3)
Assay type: binding

T1 sequence (P17936 28-291): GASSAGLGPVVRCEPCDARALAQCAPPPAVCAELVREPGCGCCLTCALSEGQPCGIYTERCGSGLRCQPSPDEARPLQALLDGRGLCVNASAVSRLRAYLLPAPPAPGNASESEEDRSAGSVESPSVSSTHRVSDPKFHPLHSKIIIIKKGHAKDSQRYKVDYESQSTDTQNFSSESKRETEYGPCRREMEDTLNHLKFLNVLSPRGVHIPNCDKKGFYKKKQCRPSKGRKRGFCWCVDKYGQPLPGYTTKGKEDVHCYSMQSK

Kd: 131 µM
Compound: COc1ccc(-c2oc3c(CC=C(C)C)c(O[C@@H]4O[C@H](CO)[C@@H](O)[C@H](O)[C@H]4O)cc(O)c3c(=O)c2O[C@@H]2O[C@@H](C)[C@H](O)[C@@H](O)[C@H]2O)cc1 [Icariin]
